Experimental data: patent US9896668B2, “Substrate-mimetic AKT inhibitor” (University of South Florida, priority 2006, dated 2018)
Square brackets hold non-standard residues; d marks the D form. Peptide text beside a SMILES is read from it. * marks the point of attachment. 4Abz = Nc1ccc(C(=O)O)cc1; NHBn = c1ccc(CN*)cc1

Biological target: Akt1 (Homo sapiens, UniProt P31749)
Assay: in vitro inhibition of Akt, fluorescence polarization assay (IMAP Akt Assay Kit)
Assay type: biochemical
Description: FIG. 9 is a table of investigations into the hydrophobic interactions between the GSK-3 residues central hydrophobic contacts and Akt. The values reported are an average of three independent binding curves using an IMAP™ Akt Assay Kit (Molecular Devices). Reactions were conducted in wells with 20.0 μL of 10 mM Tris-HCl (pH 7.2), 10 mM MgCl2, 0.1% BSA, 0.05% NaN3, 1 mM DTT, 100 nM 5FAM-[…]-COOH, 5 μM ATP, Akt1, and inhibitor. Reaction mixtures were incubated for 1 h at room temperature and then quenched with 60 μL of the IMAP-binding solution. The reactions were equilibrated for 1 h at room temperature then data points were collected and analyzed.
FIG. 14 is a table showing the optimization of C-terminal and central substituents for non-peptide inhibitors. ^a Reported values are an average of three independent-binding curves utilizing an IMAP® Akt Assay Kit (Molecular Devices). […] The reactions were equilibrated for 1 h at room temperature then data points were collected and analyzed. […]
Peptidomimetic inhibitors were generated directly from the minimal substrate sequence by systematic replacement of the non-critical amino acids and tested for in vitro inhibition of Akt using a fluorescence polarization assay system, shown in FIG. 3. […]

Sequence of Akt1 (P31749 whole entry): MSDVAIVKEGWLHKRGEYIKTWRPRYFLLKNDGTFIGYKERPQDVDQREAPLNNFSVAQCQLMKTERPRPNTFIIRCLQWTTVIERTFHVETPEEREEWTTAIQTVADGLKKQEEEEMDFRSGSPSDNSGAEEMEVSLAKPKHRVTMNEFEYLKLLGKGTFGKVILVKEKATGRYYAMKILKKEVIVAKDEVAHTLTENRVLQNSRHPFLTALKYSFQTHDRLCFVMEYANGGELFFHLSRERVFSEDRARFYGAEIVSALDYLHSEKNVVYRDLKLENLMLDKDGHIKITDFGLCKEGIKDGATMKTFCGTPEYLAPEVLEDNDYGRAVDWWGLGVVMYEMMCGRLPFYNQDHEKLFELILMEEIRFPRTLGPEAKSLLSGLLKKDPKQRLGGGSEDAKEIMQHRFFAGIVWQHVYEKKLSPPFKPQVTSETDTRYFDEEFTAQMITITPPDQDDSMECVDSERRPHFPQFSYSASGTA

For `CC(=O)NCC(=O)N[C@@H](CCCNC(=N)N)C(=O)N1CCC[C@H]1C(=O)N[C@@H](CCCNC(=N)N)C(=O)Nc1ccc(C(=O)N[C@H](C(=O)N[C@@H](Cc2ccccc2)C(=O)NCc2ccccc2)C(C)C)cc1` [Inhibitor 10] (Ac-GRPR[4Abz]VF-NHBn), the IC50 (IMAP Akt Assay Kit, 5 μM ATP, 100 nM 5FAM-GRPRTSSFAEG-COOH, 1 h room temperature) was 28 µM and the “fold increase in potency/activity versus parent inhibitor” value (in vitro Akt inhibition) was 10 fold.
